Source: patent publication US12201620B2, “Compositions and methods for treating chemotherapy resistant cancer” (The Brigham And Women's Hospital, Inc., priority 2016, dated 2025)
Entries after “also recorded” stand apart in the source; their conditions may differ.

Tests used:
[1] = system: Molm13 PPM1D-mutant pooled cells and control pooled cells; assay: In vitro competition experiment, PPM1D-mutant cells mixed with control cells; assay type: cell-based, human; conditions: 1:9 ratio, 100 nM cytarabine plus 100 nM GSK2830371
Procedure: FIG. 2B provides immunoblots of whole cell lysates from Molm13 control cells (control), PPM1D-mutant pooled clones and PPM1D frame-shift (fs) mutant single cell clones probed with anti-PPM1D and anti-Actin. […] FIG. 2D is a plot depicting viability assays in Molm13 PPM1D-mutant or control single cells clones that were treated with increasing concentrations of cyclophosphamide for 72 hours. FIG. 2E is a plot depicting viability assays in Molm13 PPM1D-mutant or control single cells clones that were treated with increasing concentrations of cisplatin for 72 hours. […] FIG. […] FIG. […] PPM1D and control sgRNAs were identified through their fluorophores.
(§1) 72 hour cell viability analysis in Molm13 PPM1D-mutant and control single cell clones after exposure to increasing doses of GSK2830371. FIG. 10F is a graph showing percent Annexin V positive cells in cells treated with PPM1D inhibitor or vehicle. Annexin V staining and flow cytometric analysis of Molm13 PPM1D-mutant and control single cell clones exposed to 3 μM of GSK2830371. *=p<0.05, **=p<0.01, ***=p<0.001
(§2) To study the sensitivity of PPM1D truncating mutations to chemotherapy exposure, frame-shift mutations were introduced in the PPM1D gene in Molm13 AML cells, which are TP53 wild-type, using CRISPR-Cas9.

[2] = system: Molm13 PPM1D-mutant and control single cell clones; assay: Annexin V staining and flow cytometric analysis; assay type: cell-based, human; conditions: 3 μM of GSK2830371
From the text: FIG. 9E is a chart depicting the consensus sequence of PPM1D based on substrate analysis of 43 substrate candidates of PPM1D. FIG. 9F depicts 43 potential PPM1D substrate sites on pSer/Thr residues on 25 proteins. […] Only localized sites were considered. Figure discloses SEQ ID NOS 4-20 and 20-31, respectively, in order of appearance. FIG. 9G depicts a schema illustrating the components of the DNA-damage response pathway that are targeted by PPM1D in leukemia cells, based on the results from the phosphoproteomics analysis. Phospho-targets of PPM1D identified by mass spectrometry (FDR<0.1) are shown in bold. Predicted PPM1D target sites that were based on the identified consensus sequence with a glutamine at +1 and >2 acidic residues (p=3.595e-13, Fisher's exact test) are shown in italics.
as §1

[3] = system: Molm13 PPM1D-mutant and control single cell clones; assay: 72-hour cell viability analysis; assay type: cell-based, human
Procedure: FIG. 2B provides immunoblots of whole cell lysates from Molm13 control cells (control), PPM1D-mutant pooled clones and PPM1D frame-shift (fs) mutant single cell clones probed with anti-PPM1D and anti-Actin. […] FIG. 2D is a plot depicting viability assays in Molm13 PPM1D-mutant or control single cells clones that were treated with increasing concentrations of cyclophosphamide for 72 hours. FIG. 2E is a plot depicting viability assays in Molm13 PPM1D-mutant or control single cells clones that were treated with increasing concentrations of cisplatin for 72 hours. […] FIG. 2G is a plot depicting flow cytometric readout of competition experiment with 5% pooled Molm13 PPM1D-mutant cells and 95% pooled Molm13 control cells exposed to 350 nM Cyclophosphamide or vehicle for 24 days. FIG. 2H is a plot depicting flow cytometric readout of competition experiment with 5% pooled Molm13 PPM1D-mutant cells and 95% pooled Molm13 control cells exposed to 1 μM Cisplatin or vehicle for 24 days. […] PPM1D and control sgRNAs were identified through their fluorophores.
The line represents the locally weighted scatterplot smoothing (LOESS) of 0.1. […] FIG. 8B is a vector map of the degradation reporter vector, with different PPM1D cDNA constructs inserted. FIG. 8C is a graph showing EGFP/mCherry ratio for Molm13 cells with overexpression of wild type PPM1D, truncated PPM1D or the C-terminal end of PPM1D. FIG. 8D is a graph showing EGFP/mCherry ratio for Molm13 p53^−/− cells with overexpression of wild type PPM1D, truncated PPM1D or the C-terminal end of PPM1D. FIG. 8E is a graph showing EGFP/mCherry ratio in Molm13 cells before and after exposure to MG132 (10 μM, 6 hours), normalized to pre-treatment values. FIG. 8F is a plot showing cell viability analysis in Molm13 control cells (control), Molm13 PPM1D truncating mutant cells (PPM1D mutant) and Molm13 cells with overexpression of wild-type PPM1D (WT overexpression). […] For all experiments the following apply: *=p<0.05, **=p<0.01, ***=p<0.001,****=p<0.0001
as §1
To study the role of PPM1D mutations in chemotherapy resistance, mutations in PPM1D were induced using the CRISPR-Cas9 system. […] Using sequence verified PPM1D mutant (fs) and empty vector control Molm13 cells, the effects of mutant and wild type PPM1D in the response to DNA damaging chemotherapy were analyzed. […] (FIG. 1C).
as §2

PPM1D phosphatase = target: T1, PPM1D phosphatase (Homo sapiens, UniProt O15297); conditions: Gilmartin et al. 2014; cited from earlier work
T1 sequence (O15297 1-605): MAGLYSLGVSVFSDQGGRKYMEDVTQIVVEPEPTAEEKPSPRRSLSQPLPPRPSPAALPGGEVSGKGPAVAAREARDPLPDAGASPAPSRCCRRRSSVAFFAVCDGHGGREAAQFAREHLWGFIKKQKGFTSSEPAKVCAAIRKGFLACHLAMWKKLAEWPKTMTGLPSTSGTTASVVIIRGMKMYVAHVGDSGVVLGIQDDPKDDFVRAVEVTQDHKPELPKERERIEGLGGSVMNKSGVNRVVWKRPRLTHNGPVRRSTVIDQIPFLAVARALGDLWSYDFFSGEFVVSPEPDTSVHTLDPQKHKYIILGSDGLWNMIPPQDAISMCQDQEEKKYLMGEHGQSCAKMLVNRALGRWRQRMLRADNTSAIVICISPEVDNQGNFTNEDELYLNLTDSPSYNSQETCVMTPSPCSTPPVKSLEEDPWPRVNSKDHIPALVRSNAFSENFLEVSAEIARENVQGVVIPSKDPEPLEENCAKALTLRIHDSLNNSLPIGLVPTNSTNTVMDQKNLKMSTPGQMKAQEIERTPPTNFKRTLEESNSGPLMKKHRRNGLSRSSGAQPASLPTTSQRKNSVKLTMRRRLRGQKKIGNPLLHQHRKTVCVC

[4] = system: Molm13 PPM1D-mutant cells; assay: Quantitative phosphoproteomic analysis (KEGG P53 pathway phosphosites); assay type: cell-based, human; conditions: 400 nM AraC + 1 μM GSK2830371, 4 hours
Procedure: as §1
To explore the spectrum of PPM1D targets in hematopoietic cells, a quantitative phosphoproteomic analysis was performed in PPM1D wild-type and mutant cells at baseline and in response to chemotherapy. […] In addition, CDKN1A (p21) was identified as a new DNA damage response target of PPM1D. Based on the peptides with altered phosphorylation in PPM1D-mutant cells, a consensus sequence was identified for the serine-threonine phosphatase activity of PPM1D (FIGS. 9E and 9F). Because many phosphorylation sites are not located on peptides that are detected by mass spectrometry, the consensus sequence was used to predict additional PPM1D targets. Known PPM1D targets, including TP53, CHEK1, CHEK2, ATM, ATR and MDM2, bear the consensus target sequence. In addition, new phosphorylation sites were identified in components of the DNA damage response pathway that are predicted targets of PPM1D based on the consensus sequence. […]

[5] = system: Molm13 PPM1D-mutant and Molm13 control single cell clones; assay: Immunoblot of whole cell lysates for p53 Ser15 and Chk1 Ser345 phosphorylation; assay type: cell-based, human; conditions: Molm13 PPM1D-mutant cells, 1 hour pretreated with GSK2830371, exposed to 400 nM cytarabine

SMILES: Cc1ncc(Cl)cc1NCc1ccc(C(=O)N[C@@H](CC2CCCC2)C(=O)NC2CC2)s1 [GSK2830371]
- competitive advantage of PPM1D-mutant cells during cytarabine plus PPM1D inhibitor [1]: reversed the competitive advantage of PPM1D mutant cells; also recorded: could be reversed
- sensitivity of PPM1D-mutant cells versus control cells to single agent PPM1D inhibitor, Annexin V staining [2]: increased sensitivity to single agent PPM1D inhibitor treatment when compared to control cells
- sensitivity of PPM1D-mutant cells versus control cells to single agent PPM1D inhibitor, cell viability ([3]; 72 hour, increasing doses): PPM1D mutant cells had an increased sensitivity; also recorded: increased sensitivity to single agent PPM1D inhibitor treatment when compared to control cells; also recorded: increased sensitivity to PPM1D inhibition with either compound in comparison to wild type control cells; also recorded: selectively kills PPM1D-mutant cells
- sensitivity of PPM1D-mutant cells to cytarabine when combined with PPM1D inhibitor ([3]; pre-treated 1 hour with 3 μM GSK2830371, 72-hour cytarabine treatment): increased the sensitivity of Molm13 PPM1D-mutant cells to cytarabine; also recorded: reverses the chemotherapy resistance phenotype
- selectivity for the PPM1D phosphatase (PPM1D phosphatase): highly selective for the PPM1D phosphatase
- aberrant phosphorylation pattern of PPM1D-mutant cells in response to chemotherapy [4]: reversed the aberrant PPM1D mutant phosphorylation pattern; also recorded: complete reversal of the aberrant phosphorylation pattern
- p53 Ser15 phosphorylation with PPM1D inhibitor [5]: increased the phosphorylation of p53
- p53 Ser15 phosphorylation with PPM1D inhibitor ([5]; listed as GKS2830371): increased p53 Ser15 phosphorylation
